Structures are written as SMILES. In brackets after ≈: the same amount, converted by molar mass.

The term IC50 denotes the concentration needed to halve the response being measured. The low end stands for greater potency, the high end for weaker potency. What is called solubility is the concentration that dissolves in the medium under given conditions. Higher therefore signals much dissolved substance.

One data set addresses T1, LMP7 (Homo sapiens, UniProt P20618+P28062).
T1 construct: endogenous in cells; host or cells: MOLT-4
The data set can be described thus: ProCISE proteasome subunit assay, LMP7. As to conditions: MOLT4 lysate Hu 1 h. The data set is classed as biochemical. In short, it runs like this: (§1)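 MOLT-4 cell lysate was incubated with compound for 1 h at 25° C, then a subunit-binding probe was applied; probe-bound subunits were pulled down on streptavidin beads after guanidine denaturation and detected with subunit-specific antibodies by HRP chemiluminescence. Signal was normalized to protein and expressed as percent of DMSO control to fit IC50.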

Data set [1] addresses c20S (constitutive 20S proteasome) (Homo sapiens, UniProt P20618+P28074). As to the kind of experiment: 20S proteasome assay, chymotrypsin-like activity (LLVY), c20S. The data set is classed as biochemical. The conditions noted are these: LLVY c20S Hu 1 h CONT: IC50 (nM), succinyl-Leu-Leu-Val-Tyr-AMC. From the text: (§2) Assay buffer consisted of TE buffer [20 mmol/L Tris (pH 8.0), 0.5 mmol/L EDTA] with (20S) or without (cell lysate) 0.03% SDS. Reactions were initiated by enzyme or lysate addition and monitored for AMC product formation at 27jC with a plate-based spectofluorometer (Tecan).

Data set [2] has as its target i20S (20S immunoproteasome) (Homo sapiens, UniProt P20618+P28062). As to the kind of experiment: 20S proteasome assay, chymotrypsin-like activity (LLVY), i20S. In kind it is biochemical. The conditions noted are these: LLVY i20S Hu 1 h CONT: IC50 (nM), succinyl-Leu-Leu-Val-Tyr-AMC.
Description: as §2

For a further data set, the target named is T2, β5 (Homo sapiens, UniProt P20618+P28074).
T2 construct: endogenous in cells; host or cells: MOLT-4
The data set can be described thus: ProCISE proteasome subunit assay, β5. The data set is classed as biochemical. The conditions noted are these: MOLT4 lysate Hu 1 h. A digest of the protocol: as §1

A short description of a further data set: Solubility pH 7. In kind it is physicochemical. The conditions noted are these: pH 7, aqueous buffer.
The next data set concerns the target T3, LMP2 (Homo sapiens, UniProt P28065+P40306).
T3 construct: endogenous in cells; host or cells: MOLT-4
As to the kind of experiment: ProCISE proteasome subunit assay, LMP2. The data set is classed as biochemical. The conditions noted are these: MOLT4 lysate Hu 1 h. The method, then: This assay was used to assess the inhibitory activity against each of LMP2, LMP7, MECL1, β1, β2, and β5. Briefly, test compounds were serially diluted in DMSO at 100× concentration, then diluted to 10× in aqueous hypotonic lysis buffer. Lysate from the human acute lymphoblastic leukemia cell line, MOLT-4, was treated for 1 hour at 25° C. with compound at a final 1× concentration. […] Following this, lysate was denatured in guanidine hydrochloride, and subunits bound to probe were isolated with streptavidin-conjugated sepharose beads. Individual subunits were probed with subunit-specific primary antibodies, followed by HRP-conjugated secondary antibodies. A chemiluminescent substrate was used to generate signal associated with HRP binding, which was detected on a plate reader. Luminescent signal was normalized to protein content, then, percent activity calculated relative to DMSO-treated controls to generate IC50 curves.

For the molecule `COc1ccc(C[C@H](NC(=O)[C@@H](C)NC(=O)CC(C)(O)C(F)(F)F)C(=O)N[C@@H](CC2CCCC2)C(=O)[C@@]2(C)CO2)cc1` (stereo partly drawn) [Compound C-2054, N—((R)-1-(((S)-1-(((S)-3-cyclopentyl-1-((R)-2-methyloxiran-2-yl)-1-oxopropan-2-yl)amino)-3-(4-methoxyphenyl)-1-oxopropan-2-yl)amino)-1-oxopropan-2-yl)-4,4,4-trifluoro-3-hydroxy-3-methylbutanamide], the 50% inhibitory concentration (IC50) against LMP7 came out at 75 nM; in data set [1], 723 nM; in data set [2], 55 nM; at β5 it was 0.67 µM. In addition, in “Solubility pH 7”, the concentration in solution (solubility) came to 122 µg/mL (≈ 0.204 mM).
Turning to `COc1ccc(C[C@H](NC(=O)[C@@H](C)NC(=O)CC(C)(C)O)C(=O)N[C@@H](Cc2ccccc2)C(=O)[C@@]2(C)CO2)cc1` [Compound C-2056, 3-hydroxy-N—((R)-1-(((S)-3-(4-methoxyphenyl)-1-(((S)-1-((R)-2-methyloxiran-2-yl)-1-oxo-3-phenylpropan-2-yl)amino)-1-oxopropan-2-yl)amino)-1-oxopropan-2-yl)-3-methylbutanamide], the concentration for half-maximal inhibition (IC50) came out at 52.2 nM against LMP7, 191 nM in data set [1], 28.9 nM in data set [2] and 0.291 µM at β5. In the data set “Solubility pH 7”, this molecule came in with a solubility of 3730 µg/mL (≈ 6.73 mM).
For the molecule `COc1ccc(C[C@H](NC(=O)[C@@H](C)NC(=O)CC(C)(C)O)C(=O)N[C@@H](CC2CCCC2)C(=O)[C@@]2(C)CO2)cc1O` [Compound C-2059, N—((R)-1-(((S)-1-(((S)-3-cyclopentyl-1-((R)-2-methyloxiran-2-yl)-1-oxopropan-2-yl)amino)-3-(3-hydroxy-4-methoxyphenyl)-1-oxopropan-2-yl)amino)-1-oxopropan-2-yl)-3-hydroxy-3-methylbutanamide], the 50% inhibitory concentration (IC50) stood at 71 nM at LMP7, 246 nM in data set [1], 15.9 nM in data set [2] and 0.534 µM at β5. In “Solubility pH 7”, this molecule displayed a solubility of 2450 µg/mL (≈ 4.36 mM).
The matching figures for `COc1ccc(C[C@H](NC(=O)[C@@H](C)NC(=O)CC(C)(C)O)C(=O)N[C@@H](CC2=CCCC2)C(=O)[C@@]2(C)CO2)cc1O` [Compound C-2060, N—((R)-1-(((S)-1-(((S)-3-(cyclopent-1-en-1-yl)-1-((R)-2-methyloxiran-2-yl)-1-oxopropan-2-yl)amino)-3-(3-hydroxy-4-methoxyphenyl)-1-oxopropan-2-yl)amino)-1-oxopropan-2-yl)-3-hydroxy-3-methylbutanamide]: 60.4 nM, 201 nM, 17.3 nM, 0.368 µM and 3010 µg/mL (≈ 5.39 mM).
Consider `COc1ccc(C[C@H](NC(=O)c2ccnc(N3CCOCC3)n2)C(=O)N[C@@H](Cc2ccccc2)C(=O)[C@@]2(C)CO2)cc1` [Compound C-3001], for which the half-maximal inhibitory concentration (IC50) stood at 4770 nM on LMP7, 5.59 µM on β5 and 526 nM against LMP2.
`COc1ccc(C[C@H](NC(=O)[C@@](C)(O)C(F)(F)F)C(=O)N[C@@H](Cc2ccccc2)C(=O)[C@@]2(C)CO2)cc1` [Compound C-3007, (R)-3,3,3-Trifluoro-2-hydroxy-N—((S)-3-(4-methoxyphenyl)-1-(((S)-1-((R)-2-methyloxiran-2-yl)-1-oxo-3-phenylpropan-2-yl)amino)-1-oxopropan-2-yl)-2-methylpropanamide]: the values for the 50% inhibitory concentration (IC50) against LMP7, on β5 and against LMP2 were 3460 nM, 9.84 µM and 274 nM, respectively. Further, in “Solubility pH 7”, the concentration in solution (solubility) was 86.7 µg/mL (≈ 0.166 mM).
With `COc1ccc(C[C@H](NC(=O)[C@H]2CCCC(=O)N2)C(=O)N[C@@H](Cc2ccccc2)C(=O)[C@@]2(C)CO2)cc1` [Compound C-3009, (R)—N—((S)-3-(4-Methoxyphenyl)-1-(((S)-1-((R)-2-methyloxiran-2-yl)-1-oxo-3-phenylpropan-2-yl)amino)-1-oxopropan-2-yl)-6-oxopiperidine-2-carboxamide], the IC50 against LMP7 stood at 4570 nM; in data set [1], 87800 nM; in data set [2], 9890 nM; against β5 it was 8.29 µM; against LMP2, 517 nM.
Take `COc1ccc(C[C@H](NC(=O)[C@@]2(C)CCC(=O)N2)C(=O)N[C@@H](Cc2ccccc2)C(=O)[C@@]2(C)CO2)cc1` [Compound C-3010, (R)—N—((S)-3-(4-methoxyphenyl)-1-(((S)-1-((R)-2-methyloxiran-2-yl)-1-oxo-3-phenylpropan-2-yl)amino)-1-oxopropan-2-yl)-2-methyl-5-oxopyrrolidine-2-carboxamide]: the IC50 on LMP7 came out at 1160 nM; in data set [1], 4080 nM; in data set [2], 1610 nM; against β5, 4.3 µM. Besides, the concentration in solution in “Solubility pH 7” (solubility) was 1380 µg/mL (≈ 2.72 mM).
As to `COc1ccc(C[C@H](NC(=O)[C@H]2CCC(=O)N2)C(=O)N[C@@H](Cc2ccccc2)C(=O)[C@@]2(C)CO2)cc1` [Compound C-3012, (R)—N—((S)-3-(4-methoxyphenyl)-1-(((S)-1-((R)-2-methyloxiran-2-yl)-1-oxo-3-phenylpropan-2-yl)amino)-1-oxopropan-2-yl)-5-oxopyrrolidine-2-carboxamide], the half-maximal inhibitory concentration (IC50) against LMP7 was found to be 2750 nM; in data set [1], 14500 nM; in data set [2] it was 4790 nM; at β5, 6.04 µM. This molecule had a solubility in the data set “Solubility pH 7” of 4410 µg/mL (≈ 8.93 mM).
The matching figures for `COc1ccc(C[C@H](NC(=O)[C@@H]2CCC(=O)N2)C(=O)N[C@@H](Cc2ccccc2)C(=O)[C@@]2(C)CO2)cc1` [Compound C-3013, (S)—N—((S)-3-(4-methoxyphenyl)-1-(((S)-1-((R)-2-methyloxiran-2-yl)-1-oxo-3-phenylpropan-2-yl)amino)-1-oxopropan-2-yl)-5-oxopyrrolidine-2-carboxamide]: 3480 nM, 15900 nM, 4050 nM, 14.2 µM and 1910 µg/mL (≈ 3.87 mM).
In the case of `COc1ccc(C[C@H](NC(=O)c2cccc(=O)[nH]2)C(=O)N[C@@H](CC2CCCC2)C(=O)[C@@]2(C)CO2)cc1` [Compound C-3014, N—((S)-1-(((S)-3-Cyclopentyl-1-((R)-2-methyloxiran-2-yl)-1-oxopropan-2-yl)amino)-3-(4-methoxyphenyl)-1-oxopropan-2-yl)-6-oxo-1,6-dihydropyridine-2-carboxamide], the concentration in solution in “Solubility pH 7” (solubility) was 69.4 µg/mL (≈ 0.14 mM). At LMP2, the midpoint of inhibition, the IC50, lay at 34.9 nM.
In the data set “Solubility pH 7”, `COc1ccc(C[C@H](NC(=O)c2cccc(=O)[nH]2)C(=O)N[C@@H](CC2=CCCC2)C(=O)[C@@]2(C)CO2)cc1` [Compound C-3015, N—((S)-1-(((S)-3-(Cyclopent-1-en-1-yl)-1-((R)-2-methyloxiran-2-yl)-1-oxopropan-2-yl)amino)-3-(4-methoxyphenyl)-1-oxopropan-2-yl)-6-oxo-1,6-dihydropyridine-2-carboxamide] registered a solubility of 143 µg/mL (≈ 0.291 mM). Further, it took 37.6 nM to reach half-maximal inhibition against LMP2 (IC50).
On to `C[C@H](NC(=O)c1cccc(=O)[nH]1)C(=O)N[C@@H](Cc1ccccc1)C(=O)[C@@]1(C)CO1` [Compound C-3016, N—((S)-1-(((S)-1-((R)-2-Methyloxiran-2-yl)-1-oxo-3-phenylpropan-2-yl)amino)-1-oxopropan-2-yl)-6-oxo-1,6-dihydropyridine-2-carboxamide], for which the concentration in solution in the data set “Solubility pH 7” (solubility) was 7520 µg/mL (≈ 18.9 mM). This molecule also came in with an IC50 against LMP2 of 55 nM.
Regarding `C[C@]1(C(=O)[C@H](Cc2ccccc2)NC(=O)[C@H](CO)NC(=O)c2cccc(=O)[nH]2)CO1` [Compound C-3017, N—((S)-3-Hydroxy-1-(((S)-1-((R)-2-methyloxiran-2-yl)-1-oxo-3-phenylpropan-2-yl)amino)-1-oxopropan-2-yl)-6-oxo-1,6-dihydropyridine-2-carboxamide], the solubility in “Solubility pH 7” was 6640 µg/mL (≈ 16.1 mM). The half-inhibitory concentration (IC50) on LMP2 (ProCISE LMP2 MOLT4 lysate Hu 1 h CONT: IC50 (nM)) worked out at 33 nM.
In turn, `C[C@H](NC(=O)c1cccc(=O)[nH]1)C(=O)N[C@@H](CC1CCCC1)C(=O)[C@@]1(C)CO1` [Compound C-3018, N—((S)-1-(((S)-3-Cyclopentyl-1-((R)-2-methyloxiran-2-yl)-1-oxopropan-2-yl)amino)-1-oxopropan-2-yl)-6-oxo-1,6-dihydropyridine-2-carboxamide] showed a solubility in the data set “Solubility pH 7” of 516 µg/mL (≈ 1.32 mM). The molecule further gave a half-maximal inhibitory concentration (IC50) on LMP2 of 24.9 nM.
In the case of `C[C@]1(C(=O)[C@H](CC2CCCC2)NC(=O)[C@H](CO)NC(=O)c2cccc(=O)[nH]2)CO1` [Compound C-3019, N—((S)-1-(((S)-3-Cyclopentyl-1-((R)-2-methyloxiran-2-yl)-1-oxopropan-2-yl)amino)-3-hydroxy-1-oxopropan-2-yl)-6-oxo-1,6-dihydropyridine-2-carboxamide], the concentration in solution in “Solubility pH 7” (solubility) came to 639 µg/mL (≈ 1.58 mM). In addition, the half-inhibitory concentration (IC50) on LMP2 is 16.8 nM.

Values taken from patent US9657057B2, “Dipeptide and tripeptide epoxy ketone protease inhibitors” (Onyx Therapeutics, Inc., priority 2013, dated 2017).
